Here are results for one compound from US20060111306A1, “DEHYDROEPHIANDROSTERONE AND UBIQUINONE COMPOSITIONS FOR TREATING ASTHMA AND BRONOCONSTRICTION” (priority 1995, published 2006).

In the assay the test system is Intracellular Adenosine in Various Rat Tissues. In words: In vivo effect on tissue adenosine levels (HPLC of 1,N6-ethenoadenosine). Set-up: species or system Fischer 344 rats. The settings on record: rats. On the procedure: Folinic acid (50 mg/kg) was administered intraperitoneally once daily for fourteen days. […] Hearts were removed from animals and flash frozen in liquid nitrogen with 10 seconds of death. Liver and lungs were removed en bloc and flash frozen with 30 seconds of death. Brain tissue was subsequently dissected.

In the case of `Nc1nc(=O)c2c([nH]1)NCC(CNc1ccc(C(=O)N[C@@H](CCC(=O)O)C(=O)O)cc1)N2C=O` (mixture of isomers) [Folinic Acid (F.A.), Folinic acid], the “effect on adenosine levels, administered alone (in words)” value (folinic acid alone, all organs studied) was “increase in adenosine levels for all organs studied”. The “effect of co-administration on steroid-mediated adenosine depletion (in words)” value (folinic acid co-administered with DHEA or methyltestosterone) is reported as “completely abrogated steroid-mediated adenosine depletion”.
